What is called IC50 is the concentration that gives 50% inhibition. Read a low IC50 as greater potency in that assay.

The structures appear in SMILES notation.

Sequence of S1P3 receptor (Q99500 whole entry): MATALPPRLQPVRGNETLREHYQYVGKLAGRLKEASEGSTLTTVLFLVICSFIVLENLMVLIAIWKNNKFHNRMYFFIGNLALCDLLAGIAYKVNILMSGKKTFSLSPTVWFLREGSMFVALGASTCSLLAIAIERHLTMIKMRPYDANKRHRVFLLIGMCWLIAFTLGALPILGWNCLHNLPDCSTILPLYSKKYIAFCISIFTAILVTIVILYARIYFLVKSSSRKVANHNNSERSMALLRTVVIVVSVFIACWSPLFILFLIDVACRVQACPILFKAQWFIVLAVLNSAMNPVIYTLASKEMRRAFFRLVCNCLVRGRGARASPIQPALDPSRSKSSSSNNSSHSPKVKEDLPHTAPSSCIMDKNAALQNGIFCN

One assay concerns the target S1P3 receptor (Homo sapiens, UniProt Q99500). Put plainly: in vitro activity in the S1P3 receptor. The assay is classed as cell-based.
Details: not given
The procedure:
The in vitro activity of these compounds in the S1P3 receptor was determined using the assay described in paragraph [0067] of United States Patent Application Publication No. 20070232682, which published on Oct. 4, 2007.
Regarding `C=CCCOC(=O)Nc1cc2c3c(c1)C(c1ccccc1)CCN3CCC2c1ccccc1` (stereo not drawn) [compound 354, But-3-enyl 1,7-diphenyl-1,2,3,5,6,7-hexahydropyrido[3,2,1-ij]quinolin-9-ylcarbamate], the “S1P3 % Inhibition” value was found to be 97%.

Consider `CC#CCOC(=O)Nc1cc2c3c(c1)C(c1ccccc1)CCN3CCC2c1ccccc1` (stereo not drawn) [compound 353, But-2-ynyl 1,7-diphenyl-1,2,3,5,6,7-hexahydropyrido[3,2,1-ij]quinolin-9-ylcarbamate], for which the “S1P3 % Inhibition” value stood at 98%.

The assay is the same for the next values; noted with them: Activity potency nM, (IC50).
In turn, `CCOC(=O)Nc1cc2c3c(c1)C(c1cccc(F)c1)CCN3CCC2c1cccc(F)c1` (stereo not drawn) [compound 093, Ethyl 1,7-bis(3-fluorophenyl)-1,2,3,5,6,7-hexahydropyrido[3,2,1-ij]quinolin-9-ylcarbamate] came in with an IC50 of 48 nM. For the molecule `CC(C)(C)NC(=O)Nc1cc2c3c(c1)C(c1ccccc1)CCN3CCC2c1ccccc1` (stereo not drawn) [compound 148, 1-tert-butyl-3-(1,7-diphenyl-1,2,3,5,6,7-hexahydropyrido[3,2,1-ij]quinolin-9-yl)urea], half-maximal inhibition (IC50) required 38 nM. With `CCNC(=O)Nc1cc2c3c(c1)C(c1ccccc1)CCN3CCC2c1ccccc1` (stereo not drawn) [compound 484, 1-(1,7-diphenyl-1,2,3,5,6,7-hexahydropyrido[3,2,1-ij]quinolin-9-yl)-3-ethylurea], the IC50 stood at 77 nM. On the same count and under the same terms, the result for `COC(=O)Nc1cc2c3c(c1)C(c1cccc(F)c1)CCN3CCC2c1cccc(F)c1` (stereo not drawn) [compound 779, Methyl 1,7-bis(3-fluorophenyl)-1,2,3,5,6,7-hexahydropyrido[3,2,1-ij]quinolin-9-ylcarbamate] reads 23 nM; that for `O=C(Nc1cc2c3c(c1)C(c1ccccc1)CCN3CCC2c1ccccc1)OCCF` (stereo not drawn) [compound 095, 2-fluoroethyl 1,7-diphenyl-1,2,3,5,6,7-hexahydropyrido[3,2,1-ij]quinolin-9-ylcarbamate], 56 nM; that for `CCCOC(=O)Nc1cc2c3c(c1)C(c1ccccc1)CCN3CCC2c1ccccc1` (stereo not drawn) [compound 275, Propyl 1,7-diphenyl-1,2,3,5,6,7-hexahydropyrido[3,2,1-ij]quinolin-9-ylcarbamate], 12.2 nM. Consider `O=C(NCc1ccoc1)Nc1cc2c3c(c1)C(c1ccccc1)CCN3CCC2c1ccccc1` (stereo not drawn) [compound 258, 1-(1,7-diphenyl-1,2,3,5,6,7-hexahydropyrido[3,2,1-ij]quinolin-9-yl)-3-(furan-3-ylmethyl)urea], for which the IC50 came to 59 nM. In turn, `CC(C)COC(=O)Nc1cc2c3c(c1)C(c1ccccc1)CCN3CCC2c1ccccc1` (stereo not drawn) [compound 274, Isobutyl 1,7-diphenyl-1,2,3,5,6,7-hexahydropyrido[3,2,1-ij]quinolin-9-ylcarbamate] registered an IC50 of 64 nM. For the molecule `O=C(Nc1cc2c3c(c1)C(c1ccccc1)CCN3CCC2c1ccccc1)OCCCCl` (stereo not drawn) [compound 205, 3-chloropropyl 1,7-diphenyl-1,2,3,5,6,7-hexahydropyrido[3,2,1-ij]quinolin-9-ylcarbamate], the midpoint of inhibition, the IC50, lay at 8 nM. As to `COC(=O)Nc1cc2c3c(c1)C(c1ccccc1)CCN3CCC2c1ccccc1` (stereo not drawn) [compound 272, methyl 1,7-diphenyl-1,2,3,5,6,7-hexahydropyrido[3,2,1-ij]quinolin-9-ylcarbamate], the IC50 turned out to be 8.3 nM.

With `C=CCNC(=O)Nc1cc2c3c(c1)C(c1ccccc1)CCN3CCC2c1ccccc1` (stereo not drawn) [compound 773, 1-allyl-3-(1,7-diphenyl-1,2,3,5,6,7-hexahydropyrido[3,2,1-ij]quinolin-9-yl)urea], the IC50 amounted to 160 nM. In the case of `CCOC(=O)Nc1cc2c3c(c1)C(c1ccccc1)CCN3CCC2c1ccccc1` (stereo not drawn) [compound 273, Ethyl 1,7-diphenyl-1,2,3,5,6,7-hexahydropyrido[3,2,1-ij]quinolin-9-ylcarbamate], the IC50 is 63 nM. Still for that read-out and setting: as for `CCCOC(=O)Nc1cc2c3c(c1)C(c1cccc(F)c1)CCN3CCC2c1cccc(F)c1` (stereo not drawn) [compound 094, Propyl 1,7-bis(3-fluorophenyl)-1,2,3,5,6,7-hexahydropyrido[3,2,1-ij]quinolin-9-ylcarbamate], the figure is 234 nM; as for `O=C(Nc1cc2c3c(c1)C(c1ccccc1)CCN3CCC2c1ccccc1)N1CCOCC1` (stereo not drawn) [compound 983, N-(1,7-diphenyl-1,2,3,5,6,7-hexahydropyrido[3,2,1-ij]quinolin-9-yl)morpholine-4-carboxamide], 130 nM; as for `CN(C)C(=O)Nc1cc2c3c(c1)C(c1ccccc1)CCN3CCC2c1ccccc1` (stereo not drawn) [compound 405, 3-(1,7-diphenyl-1,2,3,5,6,7-hexahydropyrido[3,2,1-ij]quinolin-9-yl)-1,1-dimethylurea], 131 nM. `CCCCCCNC(=S)Nc1cc2c3c(c1)C(c1ccccc1)CCN3CCC2c1ccccc1` (stereo not drawn) [compound 256, 1-(1,7-diphenyl-1,2,3,5,6,7-hexahydropyrido[3,2,1-ij]quinolin-9-yl)-3-hexylthiourea] displayed an IC50 of 78 nM. Regarding `CCCCNC(=O)Nc1cc2c3c(c1)C(c1ccccc1)CCN3CCC2c1ccccc1` (stereo not drawn) [compound 485, 1-Butyl-3-(1,7-diphenyl-1,2,3,5,6,7-hexahydropyrido[3,2,1-ij]quinolin-9-yl)urea], the IC50 is 52 nM. Consider `C=CCCOC(=O)Nc1cc2c3c(c1)C(c1ccccc1)CCN3CCC2c1ccccc1` (stereo not drawn) [compound 354, But-3-enyl 1,7-diphenyl-1,2,3,5,6,7-hexahydropyrido[3,2,1-ij]quinolin-9-ylcarbamate], for which 16 nM corresponded to half-maximal inhibition (IC50). Molecule `C#CCOC(=O)Nc1cc2c3c(c1)C(c1ccccc1)CCN3CCC2c1ccccc1` (stereo not drawn) [compound 352, Prop-2-ynyl 1,7-diphenyl-1,2,3,5,6,7-hexahydropyrido[3,2,1-ij]quinolin-9-ylcarbamate] returned an IC50 of 40 nM.

`CC#CCOC(=O)Nc1cc2c3c(c1)C(c1ccccc1)CCN3CCC2c1ccccc1` (stereo not drawn) [compound 353, But-2-ynyl 1,7-diphenyl-1,2,3,5,6,7-hexahydropyrido[3,2,1-ij]quinolin-9-ylcarbamate] returned an IC50 of 13 nM. Take `CCCCOC(=O)Nc1cc2c3c(c1)C(c1ccccc1)CCN3CCC2c1ccccc1` (stereo not drawn) [compound 276, Butyl 1,7-diphenyl-1,2,3,5,6,7-hexahydropyrido[3,2,1-ij]quinolin-9-ylcarbamate]: inhibition was half-maximal at 8.7 nM (IC50). Consider `O=C(NCCCl)Nc1cc2c3c(c1)C(c1ccccc1)CCN3CCC2c1ccccc1` (stereo not drawn) [compound 769, 1-(2-chloroethyl)-3-(1,7-diphenyl-1,2,3,5,6,7-hexahydropyrido[3,2,1-ij]quinolin-9-yl)urea], for which the IC50 amounted to 374 nM. `O=C(Nc1cc2c3c(c1)C(c1ccccc1)CCN3CCC2c1ccccc1)Oc1ccccc1` (stereo not drawn) [compound 277, Phenyl 1,7-diphenyl-1,2,3,5,6,7-hexahydropyrido[3,2,1-ij]quinolin-9-ylcarbamate] showed an IC50 of 901 nM. On to `CCCCCCNC(=O)Nc1cc2c3c(c1)C(c1ccccc1)CCN3CCC2c1ccccc1` (stereo not drawn) [compound 487, 1-(1,7-diphenyl-1,2,3,5,6,7-hexahydropyrido[3,2,1-ij]quinolin-9-yl)-3-hexylurea], for which inhibition was half-maximal at 301 nM (IC50). As for `CCCCOC(=O)Nc1cc2c3c(c1)C(c1cccc(F)c1)CCN3CCC2c1cccc(F)c1` (stereo not drawn) [compound 202, Butyl 1,7-bis(3-fluorophenyl)-1,2,3,5,6,7-hexahydropyrido[3,2,1-ij]quinolin-9-ylcarbamate], the IC50 worked out at 272 nM.

With `O=C(Nc1cc2c3c(c1)C(c1ccccc1)CCN3CCC2c1ccccc1)OCCCCCl` (stereo not drawn) [compound 206, 4-chlorobutyl 1,7-diphenyl-1,2,3,5,6,7-hexahydropyrido[3,2,1-ij]quinolin-9-ylcarbamate], the IC50 was 62 nM. The molecule `CCCNC(=S)Nc1cc2c3c(c1)C(c1ccccc1)CCN3CCC2c1ccccc1` (stereo not drawn) [compound 255, 1-(1,7-diphenyl-1,2,3,5,6,7-hexahydropyrido[3,2,1-ij]quinolin-9-yl)-3-propylthiourea] registered an IC50 of 153 nM. As to `O=C(Nc1cc2c3c(c1)C(c1ccccc1)CCN3CCC2c1ccccc1)OCc1ccccc1` (stereo not drawn) [compound 278, Benzyl 1,7-diphenyl-1,2,3,5,6,7-hexahydropyrido[3,2,1-ij]quinolin-9-ylcarbamate], the IC50 was found to be 66 nM.

Source of the values: US20090281322A1, “THERAPEUTICALLY USEFUL SUBSTITUTED 1,7-DIPHENYL-1,2,3,5,6,7-HEXAHYDROPYRIDO[3,2,1-Ij]QUINOLINE COMPOUNDS” (ALLERGAN, INC., priority 2008, published 2009).
